The values that follow are results of earlier work, collected in US11465999B2, “Process for preparing Alectinib or a pharmaceutically acceptable salt thereof” (FRESENIUS KABI ONCOLOGY LIMITED, priority 2017, dated 2022).

The conditions of series [1]: in water across the whole pH range and in different solvents.
The conditions of series [2]: high humidity: absorbs moisture to form a tetrahydrate; low humidity: dehydrates to anhydrate; drying.

Where a name gives a salt, the structure may show the parent alone.

`CCc1cc2c(cc1N1CCC(N3CCOCC3)CC1)C(C)(C)c1[nH]c3cc(C#N)ccc3c1C2=O` [Alectinib hydrochloride]: the solubility entry in series [1] is given as “insoluble”.
In the case of `CCc1cc2c(cc1N1CCC(N3CCOCC3)CC1)C(C)(C)c1[nH]c3cc(C#N)ccc3c1C2=O.Cl` [type III], the “stability of crystalline form” value in series [2] was “converts to type II on drying”.
`CCc1cc2c(cc1N1CCC(N3CCOCC3)CC1)C(C)(C)c1[nH]c3cc(C#N)ccc3c1C2=O.Cl` [type II]: the “stability of crystalline form” value in series [2] was “not stable”.
